Experimental data taken from patent publication US20230203081A1, “LINCOSAMIDE ANTIBIOTICS AND USES THEREOF” (President and Fellows of Harvard College, priority 2020, published 2023).

System: broad panel of different clinical isolates
Assay: microbe, parasite or virus in culture
Format: cell-based
In short: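 Per CLSI, MICs by broth microdilution or agar dilution; strains other than streptococci and anaerobes were sub-cultured overnight at 35° C on blood agar, with a final broth inoculum of 5×10^5 CFU/mL.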

Measured: MIC

C[C@H]1c2cccc(O)c2C(=O)C2=C(O)[C@]3(O)C(=O)C(C(N)=O)=C(O)[C@@H](N(C)C)[C@@H]3[C@@H](O)[C@@H]21 [Doxycycline]
> 128 µg/mL: Enterococcus faecium, VRE, E. faecium HAV#320, Clinical
16 µg/mL: Enterococcus faecium, VRE, E. faecium HAV#319, Line R & Vanco R | Klebsiella pneumoniae, K. pneumoniae HAV#409, ESBL-producing | Staphylococcus aureus, MRSA, S. aureus HAV#218, Line R
64 µg/mL: Staphylococcus aureus, MRSA, S. aureus HAV#0107, MRSA Col(Colindale, England)
0.5 µg/mL: Staphylococcus aureus, S. aureus HAV#051, mecA, norA, spcl, ermA, aad1, aac6′-aph2″ | Staphylococcus aureus, S. aureus HAV#052, mecA, norA, fosB, blaZ | Staphylococcus aureus, S. aureus HAV#053 mecA, norA, fosB
32 µg/mL: Escherichia coli, E. coli HAV#503, Clinical | Escherichia coli, E. coli HAV#513, Clinical | Klebsiella pneumoniae, K. pneumoniae HAV#407, Clinical | Klebsiella pneumoniae, K. pneumoniae HAV#408, Clinical | Staphylococcus epidermidis, S. epidermidis HAV#279, Line R
8 µg/mL: Escherichia coli, E. coli HAV#516, ESBL-producing | Staphylococcus aureus, MRSA, S. aureus HAV#220, Line R | Staphylococcus aureus, VISA, S. aureus HAV#203, Clinical (VISA) | Staphylococcus epidermidis, S. epidermidis HAV#277, Line R
2 µg/mL: Escherichia coli, E. coli HAV#511, Clinical | Escherichia coli, E. coli HAV#512, Clinical | Escherichia coli, E. coli HAV#514, Clinical | Klebsiella pneumoniae, K. pneumoniae HAV#405, Clinical | Klebsiella pneumoniae, K. pneumoniae HAV#406, Clinical | Staphylococcus aureus, S. aureus HAV#054, mecA, norA, spcl, aad1, fosB, ermA, aac6′-aph2″, blaZ | Staphylococcus epidermidis, S. epidermidis HAV# 276, cfr | Streptococcus pneumoniae, S. pneumoniae HAV#356, Clinical
0.125 µg/mL: Staphylococcus aureus, S. aureus HAV#213, Clinical
1 µg/mL: Staphylococcus aureus, MSSA, S. aureus HAV#219, Line R | Staphylococcus epidermidis, S. epidermidis HAV# 275 Clinical, cfr
0.25 µg/mL: Haemophilus influenzae, ATCC9007, H. influenzae HAV#376, ATCC-9007 | Staphylococcus aureus, S. aureus HAV#212, Clinical | Staphylococcus aureus, S. aureus HAV#214, Clinical | Staphylococcus aureus, S. aureus HAV#215, Clinical | Staphylococcus aureus, S. aureus HAV#216, Clinical, cfr | Streptococcus pneumoniae, ATCCBAA255, S. pneumoniae HAV#354, ATCC-BAA-255 | Streptococcus pneumoniae, ATCCBAA334, S. pneumoniae HAV#353, ATCC-BAA-334 | Streptococcus pneumoniae, S. pneumoniae HAV#358, Clinical
4 µg/mL: Klebsiella pneumoniae, K. pneumoniae HAV#404, Clinical | Staphylococcus aureus, S. aureus HAV#211, Clinical | Staphylococcus aureus, S. aureus HAV#217, cfr | Staphylococcus epidermidis, S. epidermidis HAV#278 Line R | Staphylococcus haemolyticus, S. haemolyticus 5052, Line R & Methicillin R | Streptococcus pneumoniae, ATCC700673, S. pneumoniae HAV#352, ATCC 700673, MDR
